Experimental data from PubChem BioAssay (NCI).
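Compound exposure: 48 hours, 5 concentrations, 96-well plates. GI50 marks 50% less growth. TGI: total growth inhibition.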

Legend:
Experiment in all cases: inhibition of tumour cell growth, NCI panel, 48 h
OVCAR-4 ovarian = test system: OVCAR-4 ovarian
SK-MEL-2 melanoma = test system: SK-MEL-2 melanoma
SNB-75 CNS = test system: SNB-75 CNS
NCI-H522 lung = test system: NCI-H522 lung
DU-145 prostate = test system: DU-145 prostate
OVCAR-3 ovarian = test system: OVCAR-3 ovarian
SF-268 CNS = test system: SF-268 CNS
SK-MEL-5 melanoma = test system: SK-MEL-5 melanoma
MOLT-4 leukemia = test system: MOLT-4 leukemia
A549 NSCLC = test system: A549 NSCLC
HOP-92 NSCLC = test system: HOP-92 NSCLC
EKVX NSCLC = test system: EKVX NSCLC
OVCAR-8 ovarian = test system: OVCAR-8 ovarian
U251 CNS = test system: U251 CNS
KM12 colon = test system: KM12 colon
RXF 393 renal = test system: RXF 393 renal
A498 renal = test system: A498 renal
786-0 renal = test system: 786-0 renal
MDA-MB-435 = test system: MDA-MB-435
MDA-MB-231 breast = test system: MDA-MB-231 breast
SN12C renal = test system: SN12C renal
MALME-3M melanoma = test system: MALME-3M melanoma
T-47D breast = test system: T-47D breast
M14 melanoma = test system: M14 melanoma
PC-3 prostate = test system: PC-3 prostate
HT29 colon = test system: HT29 colon
SF-295 CNS = test system: SF-295 CNS
HL-60(TB) leukemia = test system: HL-60(TB) leukemia
HOP-62 NSCLC = test system: HOP-62 NSCLC
UACC-62 melanoma = test system: UACC-62 melanoma
SF-539 CNS = test system: SF-539 CNS
SR leukemia = test system: SR leukemia
HCT-15 colon = test system: HCT-15 colon
SNB-19 CNS = test system: SNB-19 CNS
OVCAR-5 ovarian = test system: OVCAR-5 ovarian
SW-620 colon = test system: SW-620 colon
CCRF-CEM leukemia = test system: CCRF-CEM leukemia
ACHN renal = test system: ACHN renal
MCF7 breast = test system: MCF7 breast
UACC-257 melanoma = test system: UACC-257 melanoma
UO-31 renal = test system: UO-31 renal
IGROV1 ovarian = test system: IGROV1 ovarian
HCT-116 colon = test system: HCT-116 colon
SK-OV-3 ovarian = test system: SK-OV-3 ovarian
HS 578T breast = test system: HS 578T breast
BT-549 breast = test system: BT-549 breast
LOX IMVI melanoma = test system: LOX IMVI melanoma
NCI/ADR-RES ovarian = test system: NCI/ADR-RES ovarian
NCI-H460 lung = test system: NCI-H460 lung
HCC-2998 colon = test system: HCC-2998 colon
NCI-H23 lung = test system: NCI-H23 lung
SK-MEL-28 melanoma = test system: SK-MEL-28 melanoma
NCI-H226 lung = test system: NCI-H226 lung
TK-10 renal = test system: TK-10 renal

For `COc1cc(NC(=O)Nc2cnc(Nc3ccc(N4CCOCC4)cc3)nc2Oc2cccc(OC)c2)cc(OC)c1`, the GI50 (OVCAR-4 ovarian) was 1130 nM, the TGI (OVCAR-4 ovarian) was 2690 nM and the GI50 (SK-MEL-2 melanoma) was 1740 nM. For the same compound, the TGI (SK-MEL-2 melanoma) was 8.67 µM, the GI50 (SNB-75 CNS) was 1100 nM and the TGI (SNB-75 CNS) was 4.69 µM. For the same compound, the GI50 (NCI-H522 lung) was 1440 nM, the TGI (NCI-H522 lung) was 6.25 µM and the GI50 (DU-145 prostate) was 1730 nM. It also gave a TGI (DU-145 prostate) of 5.82 µM, a GI50 (OVCAR-3 ovarian) of 1270 nM and a TGI (OVCAR-3 ovarian) of 3.25 µM. For the same compound, the GI50 (SF-268 CNS) was 2070 nM, the TGI (SF-268 CNS) was 12.3 µM and the GI50 (SK-MEL-5 melanoma) was 1130 nM. The TGI (SK-MEL-5 melanoma) was 2650 nM, the GI50 (MOLT-4 leukemia) was 36.8 µM and the TGI (MOLT-4 leukemia) was greater than 50 µM. The GI50 (A549 NSCLC) was 1990 nM, the TGI (A549 NSCLC) was 6.47 µM and the GI50 (HOP-92 NSCLC) was 1140 nM. The TGI (HOP-92 NSCLC) was 3.51 µM, the GI50 (EKVX NSCLC) was 2170 nM and the TGI (EKVX NSCLC) was 24.5 µM. The GI50 (OVCAR-8 ovarian) was 1310 nM, the TGI (OVCAR-8 ovarian) was 3.19 µM and the GI50 (U251 CNS) was 1630 nM. It also gave a TGI (U251 CNS) of 5.05 µM, a GI50 (KM12 colon) of 2190 nM and a TGI (KM12 colon) of 22.5 µM. For the same compound, the GI50 (RXF 393 renal) was 887 nM, the TGI (RXF 393 renal) was 1820 nM and the GI50 (A498 renal) was 1300 nM. It also gave a TGI (A498 renal) of 2970 nM, a GI50 (786-0 renal) of 928 nM and a TGI (786-0 renal) of 1880 nM. For the same compound, the GI50 (MDA-MB-435) was 1990 nM, the TGI (MDA-MB-435) was 11.5 µM and the GI50 (MDA-MB-231 breast) was 1410 nM. It also gave a TGI (MDA-MB-231 breast) of 4.7 µM, a GI50 (SN12C renal) of 1300 nM and a TGI (SN12C renal) of 3.71 µM. For the same compound, the GI50 (MALME-3M melanoma) was 1280 nM, the TGI (MALME-3M melanoma) was 3.82 µM and the GI50 (T-47D breast) was 2140 nM. The TGI (T-47D breast) was greater than 50 µM, the GI50 (M14 melanoma) was 1850 nM and the TGI (M14 melanoma) was 9.2 µM. For the same compound, the GI50 (PC-3 prostate) was 3.16 µM, the TGI (PC-3 prostate) was 23.7 µM and the GI50 (HT29 colon) was 1100 nM. For the same compound, the TGI (HT29 colon) was 3.15 µM, the GI50 (SF-295 CNS) was 1190 nM and the TGI (SF-295 CNS) was 3.61 µM. The GI50 (HL-60(TB) leukemia) was 2760 nM, the TGI (HL-60(TB) leukemia) was greater than 50 µM and the GI50 (HOP-62 NSCLC) was 1760 nM. For the same compound, the TGI (HOP-62 NSCLC) was 6.9 µM, the GI50 (UACC-62 melanoma) was 1350 nM and the TGI (UACC-62 melanoma) was 4.04 µM. It also gave a GI50 (SF-539 CNS) of 884 nM, a TGI (SF-539 CNS) of 1750 nM and a GI50 (SR leukemia) of 2710 nM. It also gave a TGI (SR leukemia) greater than 50 µM, a GI50 (HCT-15 colon) of 5.35 µM and a TGI (HCT-15 colon) greater than 50 µM. The GI50 (SNB-19 CNS) was 5.73 µM, the TGI (SNB-19 CNS) was greater than 50 µM and the GI50 (OVCAR-5 ovarian) was 6.49 µM. It also gave a TGI (OVCAR-5 ovarian) of 41.6 µM, a GI50 (SW-620 colon) of 2990 nM and a TGI (SW-620 colon) greater than 50 µM. For the same compound, the GI50 (CCRF-CEM leukemia) was greater than 50 µM, the TGI (CCRF-CEM leukemia) was greater than 50 µM and the GI50 (ACHN renal) was 1610 nM. For the same compound, the TGI (ACHN renal) was 6.84 µM, the GI50 (MCF7 breast) was 1920 nM and the TGI (MCF7 breast) was 18.8 µM. The GI50 (UACC-257 melanoma) was 3.36 µM, the TGI (UACC-257 melanoma) was 16.8 µM and the GI50 (UO-31 renal) was 1300 nM. For the same compound, the TGI (UO-31 renal) was 6.74 µM, the GI50 (IGROV1 ovarian) was 1800 nM and the TGI (IGROV1 ovarian) was 7.77 µM. The GI50 (HCT-116 colon) was 1100 nM, the TGI (HCT-116 colon) was 2740 nM and the GI50 (SK-OV-3 ovarian) was 2790 nM. It also gave a TGI (SK-OV-3 ovarian) of 11.1 µM, a GI50 (HS 578T breast) of 1970 nM and a TGI (HS 578T breast) of 20.6 µM. It also gave a GI50 (BT-549 breast) of 1490 nM, a TGI (BT-549 breast) of 5.74 µM and a GI50 (LOX IMVI melanoma) of 1470 nM. For the same compound, the TGI (LOX IMVI melanoma) was 5.59 µM, the GI50 (NCI/ADR-RES ovarian) was 4.04 µM and the TGI (NCI/ADR-RES ovarian) was greater than 50 µM. The GI50 (NCI-H460 lung) was 1120 nM, the TGI (NCI-H460 lung) was 2270 nM and the GI50 (HCC-2998 colon) was 1320 nM. For the same compound, the TGI (HCC-2998 colon) was 3.62 µM, the GI50 (NCI-H23 lung) was 1820 nM and the TGI (NCI-H23 lung) was 11.8 µM. For the same compound, the GI50 (SK-MEL-28 melanoma) was 1610 nM, the TGI (SK-MEL-28 melanoma) was 6.21 µM and the GI50 (NCI-H226 lung) was 1880 nM. The TGI (NCI-H226 lung) was 8.48 µM, the GI50 (TK-10 renal) was 1110 nM and the TGI (TK-10 renal) was 2850 nM.
